Test results from ChEMBL document CHEMBL1201862, “PubChem BioAssay data set” (2004).
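Test compounds were applied to cells in 96-well plates for 48 hours at 5 doses. At the GI50, growth is halved.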 Active and inactive are the calls of the source. No stated cut-off is given here; in the data, active = GI50 up to about 1.1 µM and inactive = higher.

Key:
Test in all cases: DTP human tumour cell line panel, 48 h
NCI/ADR-RES = test system: NCI/ADR-RES
OVCAR-4 = test system: OVCAR-4
SF-539 = test system: SF-539
LOX IMVI = test system: LOX IMVI
UO-31 = test system: UO-31
OVCAR-5 = test system: OVCAR-5
HOP-62 = test system: HOP-62
EKVX = test system: EKVX
SK-MEL-2 = test system: SK-MEL-2
A549 = test system: A549
NCI-H226 = test system: NCI-H226
SNB-19 = test system: SNB-19
TK-10 = test system: TK-10
NCI-H522 = test system: NCI-H522
MDA-MB-231 = test system: MDA-MB-231
DU-145 = test system: DU-145
RXF 393 = test system: RXF 393
HCC 2998 = test system: HCC 2998
HT-29 = test system: HT-29
BT-549 = test system: BT-549
COLO 205 = test system: COLO 205
SK-MEL-28 = test system: SK-MEL-28
NCI-H460 = test system: NCI-H460
MDA-MB-435 = test system: MDA-MB-435
Malme-3M = test system: Malme-3M
SN12C = test system: SN12C
OVCAR-3 = test system: OVCAR-3
SNB-75 = test system: SNB-75
HCT-15 = test system: HCT-15
T47D = test system: T47D
OVCAR-8 = test system: OVCAR-8
MDA-N = test system: MDA-N
IGROV-1 = test system: IGROV-1
M14 = test system: M14
SK-MEL-5 = test system: SK-MEL-5
SW-620 = test system: SW-620
UACC-257 = test system: UACC-257
786-0 = test system: 786-0
KM12 = test system: KM12
MOLT-4 = test system: MOLT-4
HL-60 = test system: HL-60
MCF7 = test system: MCF7
SR = test system: SR
SF-268 = test system: SF-268
A498 = test system: A498
PC-3 = test system: PC-3
HOP-92 = test system: HOP-92
HCT-116 = test system: HCT-116
SK-OV-3 = test system: SK-OV-3
CCRF-CEM = test system: CCRF-CEM
U-251 = test system: U-251
UACC-62 = test system: UACC-62
K562 = test system: K562
NCI-H23 = test system: NCI-H23
Hs-578T = test system: Hs-578T
RPMI-8226 = test system: RPMI-8226
CAKI-1 = test system: CAKI-1
ACHN = test system: ACHN
SF-295 = test system: SF-295
M19-MEL = test system: M19-MEL
LXFL 529 = test system: LXFL 529
KM-20L2 = test system: KM-20L2
DLD-1 = test system: DLD-1
SNB-78 = test system: SNB-78

## COc1ccccc1CC1(O)OC(=O)c2ccccc21 (stereo not drawn)
NCI/ADR-RES
  GI50: > 100 µM (inactive)
OVCAR-4
  GI50: > 100 µM (inactive)
SF-539
  GI50: > 100 µM (inactive)
LOX IMVI
  GI50: > 100 µM (inactive)
UO-31
  GI50: > 100 µM (inactive)
OVCAR-5
  GI50: > 100 µM (inactive)
HOP-62
  GI50: > 100 µM (inactive)
EKVX
  GI50: > 100 µM (inactive)
SK-MEL-2
  GI50: > 100 µM (inactive)
A549
  GI50: > 100 µM (inactive)
NCI-H226
  GI50: > 100 µM (inactive)
SNB-19
  GI50: > 100 µM (inactive)
TK-10
  GI50: > 100 µM (inactive)
NCI-H522
  GI50: > 100 µM (inactive)
MDA-MB-231
  GI50: > 100 µM (inactive)
DU-145
  GI50: > 100 µM (inactive)
RXF 393
  GI50: > 100 µM (inactive)
HCC 2998
  GI50: > 100 µM (inactive)
HT-29
  GI50: > 100 µM (inactive)
BT-549
  GI50: > 100 µM (inactive)
COLO 205
  GI50: > 100 µM (inactive)
SK-MEL-28
  GI50: > 100 µM (inactive)
NCI-H460
  GI50: > 100 µM (inactive)
MDA-MB-435
  GI50: > 100 µM (inactive)
Malme-3M
  GI50: > 100 µM (inactive)
SN12C
  GI50: > 100 µM (inactive)
OVCAR-3
  GI50: > 100 µM (inactive)
SNB-75
  GI50: > 100 µM (inactive)
HCT-15
  GI50: > 100 µM
T47D
  GI50: > 100 µM (inactive)
OVCAR-8
  GI50: > 100 µM (inactive)
MDA-N
  GI50: > 100 µM (inactive)
IGROV-1
  GI50: > 100 µM (inactive)
M14
  GI50: > 100 µM (inactive)
SK-MEL-5
  GI50: > 100 µM (inactive)
SW-620
  GI50: > 100 µM (inactive)
UACC-257
  GI50: > 100 µM (inactive)
786-0
  GI50: > 100 µM (inactive)
KM12
  GI50: > 100 µM (inactive)
MOLT-4
  GI50: > 100 µM (inactive)
HL-60
  GI50: > 100 µM (inactive)
MCF7
  GI50: > 100 µM (inactive)
SR
  GI50: > 100 µM (inactive)
SF-268
  GI50: > 100 µM (inactive)
A498
  GI50: > 100 µM (inactive)
PC-3
  GI50: > 100 µM (inactive)
HOP-92
  GI50: > 100 µM (inactive)
HCT-116
  GI50: > 100 µM (inactive)
SK-OV-3
  GI50: > 100 µM (inactive)
CCRF-CEM
  GI50: > 100 µM (inactive)
U-251
  GI50: > 100 µM (inactive)
UACC-62
  GI50: > 100 µM (inactive)
K562
  GI50: > 100 µM (inactive)
NCI-H23
  GI50: > 100 µM (inactive)
Hs-578T
  GI50: > 100 µM (inactive)
RPMI-8226
  GI50: > 100 µM (inactive)
CAKI-1
  GI50: > 100 µM (inactive)
ACHN
  GI50: > 100 µM (inactive)
SF-295
  GI50: > 100 µM (inactive)

## CC(=O)OCC1OC(N2C(c3ccccc3)=CC(c3ccco3)C(C#N)=C2S)C(OC(C)=O)C(OC(C)=O)C1OC(C)=O (stereo not drawn)
NCI/ADR-RES
  GI50: 4.78 µM (inactive)
OVCAR-4
  GI50: 3.33 µM (inactive)
SF-539
  GI50: 2.06 µM (inactive)
LOX IMVI
  GI50: 5.74 µM (inactive)
UO-31
  GI50: 9.23 µM (inactive)
OVCAR-5
  GI50: 6.9 µM (inactive)
HOP-62
  GI50: 6.27 µM (inactive)
EKVX
  GI50: > 29 µM (inactive)
SK-MEL-2
  GI50: 28.8 µM (inactive)
A549
  GI50: 9.44 µM (inactive)
NCI-H226
  GI50: 6.71 µM (inactive)
SNB-19
  GI50: 11.9 µM (inactive)
TK-10
  GI50: 18.7 µM (inactive)
NCI-H522
  GI50: 16.6 µM (inactive)
MDA-MB-231
  GI50: 3.13 µM (inactive)
DU-145
  GI50: 19.7 µM (inactive)
RXF 393
  GI50: 4.06 µM (inactive)
HCC 2998
  GI50: 14.8 µM (inactive)
HT-29
  GI50: 5.94 µM (inactive)
BT-549
  GI50: 3.59 µM (inactive)
COLO 205
  GI50: 3 µM (inactive)
SK-MEL-28
  GI50: 8.79 µM (inactive)
NCI-H460
  GI50: 14.7 µM (inactive)
MDA-MB-435
  GI50: 8.11 µM (inactive)
Malme-3M
  GI50: 3.04 µM (inactive)
SN12C
  GI50: 4.22 µM (inactive)
OVCAR-3
  GI50: 5.75 µM (inactive)
SNB-75
  GI50: 2.55 µM (inactive)
HCT-15
  GI50: > 100 µM
T47D
  GI50: 30.4 µM (inactive)
OVCAR-8
  GI50: 2.83 µM (inactive)
MDA-N
  GI50: 11.3 µM (inactive)
IGROV-1
  GI50: 27.4 µM (inactive)
M14
  GI50: 4.65 µM (inactive)
SK-MEL-5
  GI50: 3.01 µM (inactive)
SW-620
  GI50: 1.36 µM (inactive)
UACC-257
  GI50: > 32.1 µM (inactive)
786-0
  GI50: 2.03 µM (inactive)
KM12
  GI50: 15.3 µM (inactive)
MOLT-4
  GI50: > 22.2 µM (inactive)
HL-60
  GI50: 10.4 µM (inactive)
MCF7
  GI50: 25.5 µM (inactive)
SR
  GI50: 7.85 µM (inactive)
SF-268
  GI50: 4.63 µM (inactive)
A498
  GI50: 15.2 µM (inactive)
PC-3
  GI50: 11.5 µM (inactive)
HOP-92
  GI50: 6.22 µM (inactive)
HCT-116
  GI50: 3.18 µM (inactive)
SK-OV-3
  GI50: 21.7 µM (inactive)
CCRF-CEM
  GI50: 12.6 µM (inactive)
U-251
  GI50: 2.54 µM (inactive)
UACC-62
  GI50: 13.6 µM (inactive)
K562
  GI50: 4.25 µM (inactive)
NCI-H23
  GI50: 5.79 µM (inactive)
Hs-578T
  GI50: 2.17 µM (inactive)
RPMI-8226
  GI50: 9.1 µM (inactive)
CAKI-1
  GI50: 14.7 µM (inactive)
ACHN
  GI50: 7.85 µM (inactive)
SF-295
  GI50: 14.4 µM (inactive)

## Oc1ccccc1-c1nnc(S)n1/N=C/c1ccc(-c2ccc(Br)cc2)o1
OVCAR-4
  GI50: 15.6 µM (inactive)
SF-539
  GI50: 33 µM (inactive)
LOX IMVI
  GI50: 23.7 µM (inactive)
UO-31
  GI50: 28 µM (inactive)
OVCAR-5
  GI50: > 100 µM (inactive)
HOP-62
  GI50: 29.9 µM (inactive)
A549
  GI50: 48.1 µM (inactive)
NCI-H226
  GI50: 22.9 µM (inactive)
SNB-19
  GI50: 24.4 µM (inactive)
TK-10
  GI50: 15.2 µM (inactive)
NCI-H522
  GI50: 60.4 µM (inactive)
M19-MEL
  GI50: 42.5 µM (inactive)
HT-29
  GI50: 51.3 µM (inactive)
COLO 205
  GI50: 39.6 µM (inactive)
SK-MEL-28
  GI50: 56.5 µM (inactive)
NCI-H460
  GI50: 95.9 µM (inactive)
LXFL 529
  GI50: 22 µM (inactive)
OVCAR-3
  GI50: 24.2 µM (inactive)
SNB-75
  GI50: 32.7 µM (inactive)
OVCAR-8
  GI50: 34 µM (inactive)
IGROV-1
  GI50: 29.2 µM (inactive)
M14
  GI50: 41.7 µM (inactive)
SW-620
  GI50: 38.6 µM (inactive)
UACC-257
  GI50: 24.3 µM (inactive)
786-0
  GI50: 39.2 µM (inactive)
KM12
  GI50: 34.7 µM (inactive)
MOLT-4
  GI50: 25.4 µM (inactive)
SF-268
  GI50: 40.3 µM (inactive)
KM-20L2
  GI50: 35.5 µM (inactive)
HOP-92
  GI50: 18.4 µM (inactive)
HCT-116
  GI50: 33.7 µM (inactive)
DLD-1
  GI50: 34 µM (inactive)
SK-OV-3
  GI50: 31 µM (inactive)
U-251
  GI50: 25.9 µM (inactive)
UACC-62
  GI50: 13.1 µM (inactive)
K562
  GI50: 32.1 µM (inactive)
NCI-H23
  GI50: 20.5 µM (inactive)
SNB-78
  GI50: 23.6 µM (inactive)
ACHN
  GI50: 29.6 µM (inactive)
SF-295
  GI50: 60.4 µM (inactive)
